“Also recorded” adds a separate entry of the source.
Assays:
Assay type in all cases: in vivo, human
[1] = system: healthy subjects and patients with CelD; assay: Clinical safety, whole study
Experimental: (§1) In Part A, healthy subjects were randomised to single ascending doses of IMU-856 (10 mg to 160 mg) or placebo. In Part B healthy subjects were randomised to multiple once-daily doses of IMU-856 (40, 80, and 160 mg) or placebo for 14 days. Part C randomised patients with celiac disease who were on a gluten-free diet to multiple once-daily doses of IMU-856 (80 mg and 160 mg) or placebo for 28 days; a once-daily gluten challenge (6 g) was introduced on Day 14 and ended on Day 28. 71 healthy subjects were enrolled in Part A and B (N=19 placebo and N=52 IMU-856) and 43 patients with CelD in Part C (N=14 placebo; N=14 for 80 mg, and N=15 for 160 mg). In Parts A and B, treatment-emergent adverse events (TEAEs) occurred in 24 (73%) and 15 (79%) of subjects receiving any dose of IMU-856 compared to 6 (50%) and 5 (71%) with placebo, respectively. […] In Part C, the most common adverse events with any dose of IMU-856 by preferred term were headache (13 [45%]), nausea (9 [31%]), diarrhoea (8 [28%]), and abdominal distension (7 [24%]). […] In Part C, the mean change in villous height from baseline to Day 29 with 80 mg and 160 mg was −20.9±34.8 μm, and −22.5±51.1 μm, respectively, and −60.3±52.2 μm with placebo. […] Mean change in plasma citrulline increased with 80 mg and 160 mg from baseline to Day 14 (2.4±6.2 and 6.1±5.9 μmol/L, respectively) and from baseline to Day 29 (2.8±7.6 and 2.2±5.3 μmol/L, respectively), but not with placebo (−2.7±5.6 and −4.0±6.5 μmol/L). […] Mean increase in zinc levels from baseline to Day 29 with 80 mg and 160 mg were 0.3±1.4 and 0.9±2.1 μmol/L compared to a mean decrease in placebo (−0.9±2.1 μmol/L). Gluten-induced symptoms were also attenuated by IMU-856.

IL-2 = assay: Serum IL-2 release on gluten challenge, Part C; conditions: first day of gluten challenge (Day 14)
Experimental: Also, biomarker response upon treatment of CelD with IMU-856 was assessed. […] A wide inter-individual range of IL-2 response leads to large SD, especially in the placebo group. The inter-individual variance regarding IL-2 response decreases with increasing dose levels as illustrated in FIG. 8 (N=39/43 included in IL-2 analysis set. 3 patients not included in this analysis due to early termination and 1 incomplete IL-2 sampling due to site error. Methods used for IL-2 analysis: Milliplex® Human High Sensitivity T Cell Magnetic Bead Panel, 3 plex (Luminex®) and Simoa® CorPlex™ Human IL-2 Kit (Quanterix)).
FIG. 8 illustrates the mean absolute change and maximum change in serum IL-2 (in pg/mL) from pre-gluten to 4 hours post-gluten on first day of gluten challenge (IL: interleukin; SD: standard deviation).

[2] = system: patients with celiac disease; assay: Mean corpuscular hemoglobin concentration, Part C; conditions: Baseline to Day 29
Text: Since hemoglobin is the molecule to which oxygen attaches, MCHC is a measure of the average oxygen-carrying capacity of the red blood cells in circulating the body (https://www.verywellhealth.com/mean-cell-hemoglobin-concentration-4584155).

[3] = system: patients with celiac disease; assay: Patient-reported symptoms with gluten challenge (Celiac Disease Symptom Diary), Part C; set-up: key to mean change in bloating / mean change in tiredness: change on 5-point severity scale (1=none to 5=very severe); conditions: for mean change in abdominal pain (SD) / mean change in diarrhea (SD) / mean change in nausea (SD): last day before to first day of gluten challenge, CDSD 5-point scale
Text: In an embodiment, the celiac disease patient is experiencing one or more symptoms as assessed by the CDSD Version 2.1® (ImmunogenX LLC) at the start of treatment with IMU-856 or a pharmaceutically acceptable salt or a solvate thereof. The CDSD questionnaire was developed to assess symptom severity in clinical trials in subjects with celiac disease. The CDSD includes five symptoms (diarrhea, abdominal pain, bloating, nausea, tiredness) asking participants about the severity of celiac disease symptoms they experience each day. Subjects rate their symptom severity on a 5-point scale (1=none, 2=mild, 3=moderate, 4=severe, 5=very severe). In various embodiments, the celiac disease patient is experiencing one or more significant or severe symptomatic days (based on CDSD) at the start of treatment with IMU-856 or a pharmaceutically acceptable salt or a solvate thereof.
Improvement in clinical symptoms of gluten exposure: On the first day of gluten challenge, the placebo group (N=12) experienced a marked average increase in symptoms, as assessed by the Celiac Disease Symptom Diary using a 5-point scale of 0.8 for nausea, 0.8 for abdominal pain, and 0.8 diarrhea. In contrast, among the pooled IMU-856 arms (N=26), these average increases were only 0.4 for nausea, 0.5 for abdominal pain and 0.6 for diarrhea.

plasma citrulline = assay: Plasma citrulline, Part C
Experimental: as §1
Also, biomarker response upon treatment of CelD with IMU-856 was assessed. […] A wide inter-individual range of IL-2 response leads to large SD, especially in the placebo group. […]

[4] = 160 mg (N 11), Day 14 to Day 29
[5] = 160 mg (N 13), Day 13 to Day 14
[6] = All Active (N 20), Day 14 to Day 29
[7] = All Active (N 26), Day 13 to Day 14
[8] = continued treatment during gluten challenge

With `Cn1c(COc2cc(C(F)(F)F)ccn2)nnc1[C@H]1CC[C@H](c2cnn([C@H]3CC[C@H](N4CC5(CCO5)C4)CC3)c2)CC1` [IMU-856, 6-(trans-4-(4-(trans-4-(4-methyl-5-(((4-(trifluoromethyl)pyridin-2-yl)oxy)methyl)-4H-1,2,4-triazol-3-yl)cyclohexyl)-1H-pyrazol-1-yl)cyclohexyl)-1-oxa-6-azaspiro[3.3]heptane] the “IMP-related serious or treatment-emergent adverse events” value ([1]; human, in vivo) was “no investigational medicinal product (IMP)-related serious or treatment-emergent adverse events”, the “dose-dependency in adverse events” value ([1]; human, in vivo) was “nor was there any dose-dependency in adverse events” and the “rates of TEAEs in non-disease related parameters versus placebo” value ([1]; human, in vivo) was “comparable between the active treatment groups and placebo”. The safety and tolerability ([1]; human, in vivo) was “safe and well-tolerated”, the “dose-limiting toxicities, systematic safety laboratory changes or deaths” value ([1]; whole study) was “No dose-limiting toxicities, systematic safety laboratory changes or deaths” and the “relation of serious adverse events to IMU-856” value ([1]; whole study) was “unrelated to IMU-856”. The serious adverse events ([1]; whole study) was “Two”, the “gluten-induced acute immune response, IL-2 release” value (IL-2) was “dampens gluten-induced acute immune response, as measured by IL-2 release, in a dose-dependent fashion; also recorded: dose-dependent lessening of acute immune response” and the “mean corpuscular hemoglobin concentration (MCHC)” value [2] was “higher mean corpuscular hemoglobin concentration; also recorded: improvement in red blood cell function”. The “mean change in bloating” value ([3]; 80 mg (N 9), Day 14 to Day 29) was −0.4, the “mean change in tiredness” value ([3]; 80 mg (N 9), Day 14 to Day 29) was −0.1 and the “mean change in bloating” value ([3]; 80 mg (N 13), Day 13 to Day 14) was 0.3. For the same compound, the “mean change in tiredness” value ([3]; 80 mg (N 13), Day 13 to Day 14) was 0.2, the “mean change in abdominal pain (SD)” value ([3]; 80 mg (N = 13)) was 0.5 (0.78) and the “mean change in diarrhea (SD)” value ([3]; 80 mg (N = 13)) was 0.5 (0.97). The “mean change in nausea (SD)” value ([3]; 80 mg (N = 13)) was 0.2 (0.69), the “mean change in bloating” value [3, 4] was −0.5 and the “mean change in tiredness” value [3, 4] was −0.5. For the same compound, the “mean change in bloating” value [3, 5] was 0.5, the “mean change in tiredness” value [3, 5] was 0.5 and the “mean change in abdominal pain (SD)” value ([3]; 160 mg (N = 13)) was 0.4 (0.87). The “mean change in diarrhea (SD)” value ([3]; 160 mg (N = 13)) was 0.6 (1.12), the “mean change in nausea (SD)” value ([3]; 160 mg (N = 13)) was 0.7 (1.03) and the “mean change in bloating” value [3, 6] was −0.5. The “mean change in tiredness” value [3, 6] was −0.3, the “mean change in bloating” value [3, 7] was 0.4 and the “mean change in tiredness” value [3, 7] was 0.3. For the same compound, the gluten-induced symptoms ([3]; Part C) was “attenuated”, the “symptoms (nausea, abdominal pain or diarrhea)” value ([3]; after first day of gluten challenge (Day 14), versus placebo) was “fewer symptoms” and the “patient-reported ability to perform daily activities” value [3, 8] was “improvement”. The “recovery from bloating symptoms” value [3, 8] was “recover to a higher extent; also recorded: improvement”, the “recovery from tiredness symptoms” value [3, 8] was “recover to a higher extent; also recorded: improvement” and the “protection against acute gluten-induced symptoms” value ([3]; first day of gluten challenge) was “initial signal of protection against acute gluten-induced symptoms”. The “protection against chronic gluten-induced symptoms” value ([3]; human, in vivo) was “initial signal of protection against chronic gluten-induced symptoms”, the “mean change in plasma citrulline” value (plasma citrulline; 80 mg, baseline to Day 14) was 2.4 ± 6.2 µmol/L and the “mean change in plasma citrulline” value (plasma citrulline; 160 mg, baseline to Day 29) was 2.2 ± 5.3 µmol/L. For the same compound, the citrulline levels (plasma citrulline; in words) was “increased citrulline levels dose proportionally; also recorded: increased in both active treatment arms”.
